# Experimental data as given in patent US8183262B2, “Pyridine derivatives as mGluR2 antagonists” (Hoffmann-La Roche Inc., priority 2007, dated 2012).
row,melting point [°C],Compound
1,326,"Cc1cc(-c2ccc(C(F)(F)F)cc2)nc(-c2nc(-c3ccc(S(N)(=O)=O)cc3)no2)n1 [Example 118, 4-{5-[4-Methyl-6-(4-trifluoromethyl-phenyl)-pyrimidin-2-yl]-[1,2,4]oxadiazol-3-yl}-benzenesulfonamide]"
2,207,"Cc1cc(-c2cc(C(F)(F)F)nc(-c3cccc(-c4ccc(N)nc4)c3)n2)ccc1C(F)(F)F [Example 119, 5-{3-[4-(3-Methyl-4-trifluoromethyl-phenyl)-6-trifluoromethyl-pyrimidin-2-yl]-phenyl}-pyridin-2-ylamine]"
3,223,"Cc1cc(-c2cc(C(F)(F)F)nc(-c3ccnc(-c4ccc(N)nc4)c3)n2)ccc1C(F)(F)F [Example 121, 4-[4-(3-Methyl-4-trifluoromethyl-phenyl)-6-trifluoromethyl-pyrimidin-2-yl]-[2,3′]bipyridinyl-6′-ylamine]"
4,248,"Cc1cc(-c2ccc(C(F)(F)F)c(C)c2)nc(-n2cnc(-c3cnc(N)nc3)c2)n1 [Example 123, 5-{1-[4-Methyl-6-(3-methyl-4-trifluoromethyl-phenyl)-pyrimidin-2-yl]-1H-imidazol-4-yl}-pyrimidin-2-ylamine]"
5,244,"Cc1cc(-c2cc(C(F)(F)F)nc(-c3cccc(-c4cnc(N)nc4)c3)n2)ccc1C(F)(F)F [Example 124, 5-{3-[4-(3-Methyl-4-trifluoromethyl-phenyl)-6-trifluoromethyl-pyrimidin-2-yl]-phenyl}-pyrimidin-2-ylamine]"
6,261,"Cc1cc(-c2cc(C(F)(F)F)nc(-c3nc(-c4ccc(S(N)(=O)=O)cc4)no3)n2)ccc1C(F)(F)F [Example 128, 4-{5-[4-(3-Methyl-4-trifluoromethyl-phenyl)-6-trifluoromethyl-pyrimidin-2-yl]-[1,2,4]oxadiazol-3-yl}-benzenesulfonamide]"
7,223.5,"Cc1cc(-c2cc(C(F)(F)F)nc(-c3nc(-c4cccc(S(N)(=O)=O)c4)no3)n2)ccc1C(F)(F)F [Example 129, 3-{5-[4-(3-Methyl-4-trifluoromethyl-phenyl)-6-trifluoromethyl-pyrimidin-2-yl]-[1,2,4}oxadiazol-3-yl]-benzenesulfonamide]"
8,223,"Cc1cc(-c2cc(C(F)(F)F)nc(-c3nc(-c4ccc(N)nc4)no3)n2)ccc1C(F)(F)F [Example 130, 5-{5-[4-(3-Methyl-4-trifluoromethyl-phenyl)-6-trifluoromethyl-pyrimidin-2-yl]-[1,2,4]oxadiazol-3-yl}-pyridin-2-ylamine]"
9,188,"Cc1cc(-c2ccc(C(F)(F)F)c(C)c2)nc(-c2ccnc(-c3ccc(N)nc3)c2)n1 [Example 131, 4-[4-Methyl-6-(3-methyl-4-trifluoromethyl-phenyl)-pyrimidin-2-yl]-[2,3′]bipyridinyl-6′-ylamine]"
10,220,"Nc1ccc(-c2cccc(-c3nc(-c4ccc(C(F)(F)F)c(OCC(F)(F)F)c4)cc(C(F)(F)F)n3)c2)cn1 [Example 133, 5-(3-{4-[3-(2,2,2-Trifluoro-ethoxy)-4-trifluoromethyl-phenyl]-6-trifluoromethyl-pyrimidin-2-yl}-phenyl)-pyridin-2-ylamine]"
11,258,"Cc1cc(-c2ccc(Cl)cc2)nc(-c2nc(-c3ccc(N)nc3)no2)n1 [Example 137, 5-{5-[4-(4-Chloro-phenyl)-6-methyl-pyrimidin-2-yl]-[1,2,4]oxadiazol-3-yl}-pyridin-2-ylamine]"
12,223,"Nc1ncc(-c2cn(-c3nc(-c4cccc(C(F)(F)F)c4)cc(C(F)(F)F)n3)cn2)cn1 [Example 139, 5-{1-[4-Trifluoromethyl-6-(3-trifluoromethyl-phenyl)-pyrimidin-2-yl]-1H-imidazol-4-yl}-pyrimidin-2-ylamine]"
13,162,"Nc1ccc(-c2cccc(-c3nc(-c4cccc(C(F)(F)F)c4)cc(C(F)(F)F)n3)c2)cn1 [Example 140, 5-{3-[4-Trifluoromethyl-6-(3-trifluoromethyl-phenyl)-pyrimidin-2-yl]-phenyl}-pyridin-2-ylamine]"

# Second part, the molecule before the results:
row,Compound,melting point [°C]
1,"Cc1cc(-c2cc(C(F)(F)F)nc(-n3cnc(-c4ccc(N)nc4)c3)n2)ccc1C(F)(F)F [Example 120, 5-{1-[4-(3-Methyl-4-trifluoromethyl-phenyl)-6-trifluoromethyl-pyrimidin-2-yl]-1H-imidazol-4-yl}-pyridin-2-ylamine]",290
2,"Cc1cc(-c2ccc(C(F)(F)F)c(C)c2)nc(-n2cnc(-c3ccc(N)nc3)c2)n1 [Example 122, 5-{1-[4-Methyl-6-(3-methyl-4-trifluoromethyl-phenyl)-pyrimidin-2-yl]-1H-imidazol-4-yl}-pyridin-2-ylamine]",247.5
3,"Cc1cc(-c2cc(C(F)(F)F)nc(-n3cnc(-c4cnc(N)nc4)c3)n2)ccc1C(F)(F)F [Example 125, 5-{1-[4-(3-Methyl-4-trifluoromethyl-phenyl)-6-trifluoromethyl-pyrimidin-2-yl]-1H-imidazol-4-yl}-pyrimidin-2-ylamine]",297
4,"Cc1cc(-c2ccc(C(F)(F)F)cc2)nc(-c2nc(-c3cccc(S(N)(=O)=O)c3)no2)n1 [Example 126, 3-{5-[4-Methyl-6-(4-trifluoromethyl-phenyl)-pyrimidin-2-yl]-[1,2,4]oxadiazol-3-yl}-benzenesulfonamide]",240.5
5,"Cc1cc(-c2ccc(C(F)(F)F)cc2)nc(-c2nc(-c3ccc(N)nc3)no2)n1 [Example 127, 5-{5-[4-Methyl-6-(4-trifluoromethyl-phenyl)-pyrimidin-2-yl]-[1,2,4]oxadiazol-3-yl}-pyridin-2-ylamine]",216.5
6,"Cc1cc(-c2ccc(C(F)(F)F)c(C)c2)nc(-c2cccc(-c3ccc(N)nc3)c2)n1 [Example 132, 5-{3-[4-Methyl-6-(3-methyl-4-trifluoromethyl-phenyl)-pyrimidin-2-yl]-phenyl}-pyridin-2-ylamine]",153
7,"Nc1ccc(-c2cn(-c3nc(-c4ccc(C(F)(F)F)c(OCC(F)(F)F)c4)cc(C(F)(F)F)n3)cn2)cn1 [Example 134, 5-(1-{4-[3-(2,2,2-Trifluoro-ethoxy)-4-trifluoromethyl-phenyl]-6-trifluoromethyl-pyrimidin-2-yl}-1H-imidazol-4-yl)-pyridin-2-ylamine]",285
8,"Nc1ccc(-c2cc(-c3nc(-c4ccc(C(F)(F)F)c(OCC(F)(F)F)c4)cc(C(F)(F)F)n3)ccn2)cn1 [Example 135, 4-{4-[3-(2,2,2-Trifluoro-ethoxy)-4-trifluoromethyl-phenyl]-6-trifluoromethyl-pyrimidin-2-yl}-[2,3′]bipyridinyl-6′-ylamine]",223
9,"Cc1cc(-c2ccc(Cl)cc2)nc(-c2nc(-c3ccc(S(N)(=O)=O)cc3)no2)n1 [Example 136, 4-{5-[4-(4-Chloro-phenyl)-6-methyl-pyrimidin-2-yl]-[1,2,4]oxadiazol-3-yl}-benzenesulfonamide]",297
10,"Nc1ccc(-c2cc(-c3nc(-c4cccc(C(F)(F)F)c4)cc(C(F)(F)F)n3)ccn2)cn1 [Example 141, 4-[4-Trifluoromethyl-6-(3-trifluoromethyl-phenyl)-pyrimidin-2-yl]-[2,3′]bipyridinyl-6′-ylamine]",196
